What follows are molecules tested against HPK1 (Homo sapiens (Human), UniProt Q92918) (assay: HPK1 Kinase Binding Assay). Details: LanthaScreen tracer 222 binding, active HPK1, one hour incubation at 25° C.
Method: A stock solution of 1 mM test compound was prepared in DMSO. The compound plate was prepared by 3-fold and 11-point serial dilutions. 0.1 μL of the compound in DMSO was transferred from the compound plate to the white 384 well polystyrene plates. The assay buffer contained 50 mM HEPES, pH 7.5, 0.01% Tween-20, 5 mM MgCl2, 0.01% BSA, and 5 mM DTT. 5 μl of 4 nM active HPK1 (SignalChem M23-11G) prepared in the buffer was added to the plate. The enzyme concentration given was based on the given stock concentration reported by the vender. 5 μl of 18 nM tracer 222 (ThermoFisher PV6121) and 4 nM LanthaScreen Eu-Anti GST antibody (ThermoFisher PV5595) were added. After one hour incubation at 25° C., the plates were read on a PHERAstar FS plate reader (BMG Labtech). Ki values were determined.

Sequence of HPK1 (Q92918 1-346): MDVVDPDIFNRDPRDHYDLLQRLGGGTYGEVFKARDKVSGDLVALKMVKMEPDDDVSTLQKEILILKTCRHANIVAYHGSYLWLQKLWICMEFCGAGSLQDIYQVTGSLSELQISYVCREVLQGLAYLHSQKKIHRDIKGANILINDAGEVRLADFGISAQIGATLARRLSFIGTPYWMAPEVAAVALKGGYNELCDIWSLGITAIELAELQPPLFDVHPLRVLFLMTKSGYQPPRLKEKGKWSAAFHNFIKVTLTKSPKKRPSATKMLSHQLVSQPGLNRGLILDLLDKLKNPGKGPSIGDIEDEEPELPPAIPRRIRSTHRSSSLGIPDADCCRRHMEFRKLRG

Compound	Ki
CN1CCN(c2ccc(-c3n[nH]c4cnc(-c5c(F)ccc6c5CCCC6N)nc34)cc2)CC1 (centres unmarked) [Example 121, 6-Fluoro-5-(3-(4-(4-methylpiperazin-1-yl)phenyl)-1H-pyrazolo[4,3-d]pyrimidin-5-yl)-1,2,3,4-tetrahydronaphthalen-1-amine]	≤ 100 nM
CN1CCN(c2ccc(-c3n[nH]c4cnc(-c5cccc6c5CCNC6)nc34)cc2)CC1 [Example 10, 5-(3-(4-(4-Methylpiperazin-1-yl)phenyl)-1H-pyrazolo[4,3-d]pyrimidin-5-yl)-1,2,3,4-tetrahydroisoquinoline]	≤ 100 nM
CNCc1cc(C)c(-c2ncc3[nH]nc(-c4cnn(-c5ccccc5C#N)c4)c3n2)c(F)c1 [Example 79, 2-(4-(5-(2-Fluoro-6-methyl-4-((methylamino)methyl)phenyl)-1H-pyrazolo[4,3-d]pyrimidin-3-yl)-1H-pyrazol-1-yl)benzonitrile]	≤ 100 nM
Cc1cccc(F)c1-c1ncc2[nH]nc(-c3ccc(N4CCC(C#N)CC4)cc3)c2n1 [Example 58, 1-(4-(5-(2-Fluoro-6-methylphenyl)-1H-pyrazolo[4,3-d]pyrimidin-3-yl)phenyl)piperidine-4-carbonitrile]	≤ 100 nM
CNC(=O)c1cncc(-c2ncc3[nH]nc(-c4ccc(N5CCN(C)CC5)cc4)c3n2)c1 [Example 9, N-Methyl-5-(3-(4-(4-methylpiperazin-1-yl)phenyl)-1H-pyrazolo[4,3-d]pyrimidin-5-yl)nicotinamide]	≤ 100 nM
COc1cccc(F)c1-c1ncc2[nH]nc(-c3ccccc3C)c2n1 [Example 20, 5-(2-Fluoro-6-methoxyphenyl)-3-o-tolyl-1H-pyrazolo[4,3-d]pyrimidine]	500 to 5000 nM
Cc1c2c(cc(F)c1-c1ncc3[nH]nc(-c4ccc(N5CCOCC5)nc4)c3n1)CCNC2 [Example 109, 4-(5-(5-(6-Fluoro-8-methyl-1,2,3,4-tetrahydroisoquinolin-7-yl)-1H-pyrazolo[4,3-d]pyrimidin-3-yl)pyridin-2-yl)morpholine]	≤ 100 nM
CN(C)CC(=O)Nc1cc(F)c(-c2ncc3[nH]nc(-c4cnn(C)c4)c3n2)c(F)c1 [Example 83, N-(3,5-Difluoro-4-(3-(1-methyl-1H-pyrazol-4-yl)-1H-pyrazolo[4,3-d]pyrimidin-5-yl)phenyl)-2-(dimethylamino)acetamide]	≤ 100 nM
CCNCc1cc(F)c(-c2ncc3[nH]nc(-c4cnn(C)c4)c3n2)c(OC)c1 [Example 87, N-(3-Fluoro-5-methoxy-4-(3-(1-methyl-1H-pyrazol-4-yl)-1H-pyrazolo[4,3-d]pyrimidin-5-yl)benzyl)ethanamine]	≤ 100 nM
CNCc1cc(F)c(-c2ncc3[nH]nc(-c4ccc(N5CCCC(C)(CO)C5)nc4)c3n2)c(F)c1 (centres unmarked) [Example 71, (1-(5-(5-(2,6-Difluoro-4-((methylamino)methyl)phenyl)-1H-pyrazolo[4,3-d]pyrimidin-3-yl)pyridin-2-yl)-3-methylpiperidin-3-yl)methanol]	≤ 100 nM
CNC1CCc2c1cc(F)c(-c1ncc3[nH]nc(-c4ccc(N5CCOCC5)nc4)c3n1)c2F (centres unmarked) [Example 113, 4,6-Difluoro-N-methyl-5-(3-(6-morpholinopyridin-3-yl)-1H-pyrazolo[4,3-d]pyrimidin-5-yl)-2,3-dihydro-1H-inden-1-amine]	≤ 100 nM
Cc1ccccc1-c1ncc2[nH]nc(-c3ccc(N4CCN(C)CC4)cc3)c2n1 [Example 2, 3-(4-(4-Methylpiperazin-1-yl)phenyl)-5-o-tolyl-1H-pyrazolo[4,3-d]pyrimidine]	≤ 100 nM
COc1cccc(F)c1-c1ncc2[nH]nc(-c3ccc(N4CCCCC4)cc3)c2n1 [Example 40, 5-(2-Fluoro-6-methoxyphenyl)-3-(4-(piperidin-1-yl)phenyl)-1H-pyrazolo[4,3-d]pyrimidine]	≤ 100 nM
CNCc1cc(F)c(-c2ncc3[nH]nc(-c4ccc(C(=O)NC)c(F)c4)c3n2)c(F)c1 [Example 62, 4-(5-(2,6-Difluoro-4-((methylamino)methyl)phenyl)-1H-pyrazolo[4,3-d]pyrimidin-3-yl)-2-fluoro-N-methylbenzamide]	≤ 100 nM
CN1CCN(c2ccc(-c3n[nH]c4cnc(-c5cccc(F)c5F)nc34)cc2)CC1 [Example 44, 5-(2,3-Difluorophenyl)-3-(4-(4-methylpiperazin-1-yl)phenyl)-1H-pyrazolo[4,3-d]pyrimidine]	≤ 100 nM
CNCc1cc(F)c(-c2ncc3[nH]nc(-c4ccc(OC)cc4)c3n2)c(F)c1 [Example 63, 1-(3,5-Difluoro-4-(3-(4-methoxyphenyl)-1H-pyrazolo[4,3-d]pyrimidin-5-yl)phenyl)-N-methylmethanamine]	≤ 100 nM

Continued, values first:

Ki	Compound
≤ 100 nM	CN1CCN(c2ccc(-c3n[nH]c4cnc(-c5cccc(C(N)=O)c5F)nc34)cc2)CC1 [Example 46, 2-Fluoro-3-(3-(4-(4-methylpiperazin-1-yl)phenyl)-1H-pyrazolo[4,3-d]pyrimidin-5-yl)benzamide]
≤ 100 nM	COc1cccc(F)c1-c1ncc2[nH]nc(-c3ccnc(N4CCN(C)CC4)c3)c2n1 [Example 51, 5-(2-Fluoro-6-methoxyphenyl)-3-(2-(4-methylpiperazin-1-yl)pyridin-4-yl)-1H-pyrazolo[4,3-d]pyrimidine]
≤ 100 nM	CNCc1cc(C)c(-c2ncc3[nH]nc(-c4ccc(N5CCN(C)CC5)cc4)c3n2)cn1 [Example 104, N-Methyl-1-(4-methyl-5-(3-(4-(4-methylpiperazin-1-yl)phenyl)-1H-pyrazolo[4,3-d]pyrimidin-5-yl)pyridin-2-yl)methanamine]
≤ 100 nM	COc1cccc(F)c1-c1ncc2[nH]nc(-c3ccc(N4CCNCC4)nc3)c2n1 [Example 52, 5-(2-Fluoro-6-methoxyphenyl)-3-(6-(piperazin-1-yl)pyridin-3-yl)-1H-pyrazolo[4,3-d]pyrimidine]
≤ 100 nM	COc1ccc(-c2ncc3[nH]nc(-c4ccc(N5CCN(C)CC5)cc4)c3n2)c2c1CNCC2 [Example 100, 8-Methoxy-5-(3-(4-(4-methylpiperazin-1-yl)phenyl)-1H-pyrazolo[4,3-d]pyrimidin-5-yl)-1,2,3,4-tetrahydroisoquinoline]
≤ 100 nM	COc1cccc(F)c1-c1ncc2[nH]nc(-c3ccncc3)c2n1 [Example 15, 5-(2-Fluoro-6-methoxyphenyl)-3-(pyridin-4-yl)-1H-pyrazolo[4,3-d]pyrimidine]
≤ 100 nM	CNCc1cc(F)c(-c2ncc3[nH]nc(-c4ccnc(N5CCOCC5)c4F)c3n2)c(F)c1 [Example 69, 1-(3,5-Difluoro-4-(3-(3-fluoro-2-morpholinopyridin-4-yl)-1H-pyrazolo[4,3-d]pyrimidin-5-yl)phenyl)-N-methylmethanamine]
≤ 100 nM	COc1cccc(F)c1-c1ncc2[nH]nc(OCc3ccccc3)c2n1 [Example 89, 3-(Benzyloxy)-5-(2-fluoro-6-methoxyphenyl)-1H-pyrazolo[4,3-d]pyrimidine]
≤ 100 nM	COc1cccc(F)c1-c1ncc2[nH]nc(-c3ccc(C(=O)N4CCOCC4)cc3)c2n1 [Example 31, (4-(5-(2-Fluoro-6-methoxyphenyl)-1H-pyrazolo[4,3-d]pyrimidin-3-yl)phenyl)(morpholino)methanone]
≤ 100 nM	CNC1CCCc2c1cc(F)c(-c1ncc3[nH]nc(-c4ccc(N5CCOCC5)nc4)c3n1)c2F (centres unmarked) [Example 116, 5,7-Difluoro-N-methyl-6-(3-(6-morpholinopyridin-3-yl)-1H-pyrazolo[4,3-d]pyrimidin-5-yl)-1,2,3,4-tetrahydronaphthalen-1-amine]

From patent US11014929B2, “Pyrazolopyrimidine compounds and uses thereof” (Incyte Corporation, priority 2016, dated 2021)
